Laboratory results taken from PubChem BioAssay AID2060912 (Molecular Pharmacology Branch, DTP, NCI, 2025).

Tested on: HUVEC/MSC spheroids viability
Assay: Human HUVEC/MSC cell line growth inhibition [KRAS2];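 as to viability, T/C: percent of DMSO vehicle control luminescence so 100% = untreated viability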
Details: for IC50: curve of first compound; for viability, T/C: stronger effect = lower value
How it was run: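 Endothelial cells (HUVEC) plus mesenchymal stem cells, cultured at 37 °C/5% CO2 and assembled into spheroids without cancer cells, served as a stromal control. Drug pairs and single agents spanned half-log ranges anchored to clinical Cmax.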

[1] = second compound 0.0316 µM, first compound 0.0316 µM
[2] = second compound 0.0316 µM, first compound 0.1 µM
[3] = second compound 0.1 µM, first compound 0.0316 µM
[4] = second compound 0.1 µM, first compound 0.1 µM
[5] = second compound 0.316 µM, first compound 0.0316 µM
[6] = second compound 0.316 µM, first compound 0.1 µM
[7] = second compound 1 µM, first compound 0.0316 µM
[8] = second compound 1 µM, first compound 0.1 µM
[9] = second compound 3.16 µM, first compound 0.0316 µM
[10] = second compound 3.16 µM, first compound 0.1 µM
[11] = second compound 10 µM, first compound 0.0316 µM
[12] = second compound 10 µM, first compound 0.1 µM

CN(C)C/C=C/C(=O)Nc1cc2c(Nc3ccc(F)c(Cl)c3)ncnc2cc1O[C@H]1CCOC1 + CC1OCC2(CCN(c3cnc(Sc4ccnc(N)c4Cl)c(N)n3)CC2)C1N
IC50 (second compound 0.0316 µM): > 100 nM | IC50 (second compound 0.1 µM): > 100 nM | IC50 (second compound 0.316 µM): > 100 nM | IC50 (second compound 1 µM): > 100 nM | IC50 (second compound 3.16 µM): > 100 nM | IC50 (second compound 10 µM): > 100 nM | viability, T/C (second compound 0.0316 µM, first compound 0.000316 µM): 110% | viability, T/C (second compound 0.0316 µM, first compound 0.001 µM): 123% | viability, T/C (second compound 0.0316 µM, first compound 0.00316 µM): 121% | viability, T/C (second compound 0.0316 µM, first compound 0.01 µM): 103% | viability, T/C [1]: 99.1% | viability, T/C [2]: 117% | viability, T/C (second compound 0.1 µM, first compound 0.000316 µM): 108% | viability, T/C (second compound 0.1 µM, first compound 0.001 µM): 148% | viability, T/C (second compound 0.1 µM, first compound 0.00316 µM): 105% | viability, T/C (second compound 0.1 µM, first compound 0.01 µM): 110% | viability, T/C [3]: 98.7% | viability, T/C [4]: 126% | viability, T/C (second compound 0.316 µM, first compound 0.000316 µM): 108% | viability, T/C (second compound 0.316 µM, first compound 0.001 µM): 114% | viability, T/C (second compound 0.316 µM, first compound 0.00316 µM): 99.4% | viability, T/C (second compound 0.316 µM, first compound 0.01 µM): 99.3% | viability, T/C [5]: 101% | viability, T/C [6]: 126% | viability, T/C (second compound 1 µM, first compound 0.000316 µM): 92.6% | viability, T/C (second compound 1 µM, first compound 0.001 µM): 118% | viability, T/C (second compound 1 µM, first compound 0.00316 µM): 106% | viability, T/C (second compound 1 µM, first compound 0.01 µM): 86.8% | viability, T/C [7]: 102% | viability, T/C [8]: 108% | viability, T/C (second compound 3.16 µM, first compound 0.000316 µM): 79.7% | viability, T/C (second compound 3.16 µM, first compound 0.001 µM): 96.2% | viability, T/C (second compound 3.16 µM, first compound 0.00316 µM): 77.9% | viability, T/C (second compound 3.16 µM, first compound 0.01 µM): 94.1% | viability, T/C [9]: 89.2% | viability, T/C [10]: 103% | viability, T/C (second compound 10 µM, first compound 0.000316 µM): 71.7% | viability, T/C (second compound 10 µM, first compound 0.001 µM): 85.9% | viability, T/C (second compound 10 µM, first compound 0.00316 µM): 66.5% | viability, T/C (second compound 10 µM, first compound 0.01 µM): 66.3% | viability, T/C [11]: 80.9% | viability, T/C [12]: 89.3%

COC(=O)c1ccc2c(C(=Nc3ccc(N(C)C(=O)CN4CCN(C)CC4)cc3)c3ccccc3)c(O)[nH]c2c1 + COc1cc2nc(C)nc(NC(C)c3cc(N)cc(C(F)(F)F)c3)c2cc1OC1CCOC1
IC50 (second compound 0.0316 µM): 949 nM | IC50 (second compound 0.1 µM): 783 nM | IC50 (second compound 0.316 µM): 551 nM | IC50 (second compound 1 µM): 739 nM | IC50 (second compound 3.16 µM): 619 nM | IC50 (second compound 10 µM): 604 nM | viability, T/C [1]: 77.5% | viability, T/C [2]: 78.8% | viability, T/C (second compound 0.0316 µM, first compound 0.316 µM): 72.5% | viability, T/C (second compound 0.0316 µM, first compound 1 µM): 41% | viability, T/C (second compound 0.0316 µM, first compound 3.16 µM): 29.7% | viability, T/C (second compound 0.0316 µM, first compound 10 µM): 0.31% | viability, T/C [3]: 78.7% | viability, T/C [4]: 89.2% | viability, T/C (second compound 0.1 µM, first compound 0.316 µM): 67.3% | viability, T/C (second compound 0.1 µM, first compound 1 µM): 40.2% | viability, T/C (second compound 0.1 µM, first compound 3.16 µM): 24.7% | viability, T/C (second compound 0.1 µM, first compound 10 µM): 0.32% | viability, T/C [5]: 72.2% | viability, T/C [6]: 83.1% | viability, T/C (second compound 0.316 µM, first compound 0.316 µM): 52.7% | viability, T/C (second compound 0.316 µM, first compound 1 µM): 39.1% | viability, T/C (second compound 0.316 µM, first compound 3.16 µM): 22% | viability, T/C (second compound 0.316 µM, first compound 10 µM): 0.35% | viability, T/C [7]: 80.1% | viability, T/C [8]: 83.4% | viability, T/C (second compound 1 µM, first compound 0.316 µM): 73% | viability, T/C (second compound 1 µM, first compound 1 µM): 38.6% | viability, T/C (second compound 1 µM, first compound 3.16 µM): 19.2% | viability, T/C (second compound 1 µM, first compound 10 µM): 0.36% | viability, T/C [9]: 59.8% | viability, T/C [10]: 68.5% | viability, T/C (second compound 3.16 µM, first compound 0.316 µM): 62.5% | viability, T/C (second compound 3.16 µM, first compound 1 µM): 40.4% | viability, T/C (second compound 3.16 µM, first compound 3.16 µM): 17.2% | viability, T/C (second compound 3.16 µM, first compound 10 µM): 0.29% | viability, T/C [11]: 63.2% | viability, T/C [12]: 68% | viability, T/C (second compound 10 µM, first compound 0.316 µM): 62.7% | viability, T/C (second compound 10 µM, first compound 1 µM): 39.1% | viability, T/C (second compound 10 µM, first compound 3.16 µM): 0.52% | viability, T/C (second compound 10 µM, first compound 10 µM): 0.28%

CC(=O)OC12COC1CC(O)C1(C)C(=O)C(O)C3=C(C)C(OC(=O)C(O)C(NC(=O)OC(C)(C)C)c4ccccc4)CC(O)(C(OC(=O)c4ccccc4)C21)C3(C)C (stereo unspecified) + C=CC(=O)N1CCN(c2nc(OCC3CCCN3C)nc3c2CCN(c2cccc4cccc(C)c24)C3)CC1CC#N
IC50 (second compound 0.00949 µM): < 9.49 nM | IC50 (second compound 0.03 µM): < 9.49 nM | IC50 (second compound 0.0949 µM): < 9.49 nM | IC50 (second compound 0.3 µM): < 9.49 nM | IC50 (second compound 0.949 µM): < 9.49 nM | IC50 (second compound 3 µM): > 3000 nM | viability, T/C (second compound 0.00949 µM, first compound 0.00949 µM): 48.9% | viability, T/C (second compound 0.00949 µM, first compound 0.03 µM): 42.7% | viability, T/C (second compound 0.00949 µM, first compound 0.0949 µM): 47.8% | viability, T/C (second compound 0.00949 µM, first compound 0.3 µM): 47% | viability, T/C (second compound 0.00949 µM, first compound 0.949 µM): 47.8% | viability, T/C (second compound 0.00949 µM, first compound 3 µM): 58% | viability, T/C (second compound 0.03 µM, first compound 0.00949 µM): 44.7% | viability, T/C (second compound 0.03 µM, first compound 0.03 µM): 40.9% | viability, T/C (second compound 0.03 µM, first compound 0.0949 µM): 38% | viability, T/C (second compound 0.03 µM, first compound 0.3 µM): 48.1% | viability, T/C (second compound 0.03 µM, first compound 0.949 µM): 47.1% | viability, T/C (second compound 0.03 µM, first compound 3 µM): 49.4% | viability, T/C (second compound 0.0949 µM, first compound 0.00949 µM): 44.3% | viability, T/C (second compound 0.0949 µM, first compound 0.03 µM): 42.1% | viability, T/C (second compound 0.0949 µM, first compound 0.0949 µM): 41.6% | viability, T/C (second compound 0.0949 µM, first compound 0.3 µM): 40.4% | viability, T/C (second compound 0.0949 µM, first compound 0.949 µM): 45.1% | viability, T/C (second compound 0.0949 µM, first compound 3 µM): 48.3% | viability, T/C (second compound 0.3 µM, first compound 0.00949 µM): 40.4% | viability, T/C (second compound 0.3 µM, first compound 0.03 µM): 49.7% | viability, T/C (second compound 0.3 µM, first compound 0.0949 µM): 45% | viability, T/C (second compound 0.3 µM, first compound 0.3 µM): 34.3% | viability, T/C (second compound 0.3 µM, first compound 0.949 µM): 48.1% | viability, T/C (second compound 0.3 µM, first compound 3 µM): 55% | viability, T/C (second compound 0.949 µM, first compound 0.00949 µM): 44.7% | viability, T/C (second compound 0.949 µM, first compound 0.03 µM): 48.3% | viability, T/C (second compound 0.949 µM, first compound 0.0949 µM): 50.5% | viability, T/C (second compound 0.949 µM, first compound 0.3 µM): 44.5% | viability, T/C (second compound 0.949 µM, first compound 0.949 µM): 63.9% | viability, T/C (second compound 0.949 µM, first compound 3 µM): 51.5% | viability, T/C (second compound 3 µM, first compound 0.00949 µM): 82.6% | viability, T/C (second compound 3 µM, first compound 0.03 µM): 76.2% | viability, T/C (second compound 3 µM, first compound 0.0949 µM): 75.6% | viability, T/C (second compound 3 µM, first compound 0.3 µM): 62.6% | viability, T/C (second compound 3 µM, first compound 0.949 µM): 67.5% | viability, T/C (second compound 3 µM, first compound 3 µM): 90.5%
